According to patent publication US9254296B2, “Pharmaceutical composition comprising vitamin D analogue and cosolvent-surfactant mixture” (LEO PHARMA A/S, priority 2009, dated 2016):

Columns and labels:
[1] = tested on: gene encoding cathelicidin; experiment: Cathelicidin target gene activation assay on reconstructed human epidermis; format: cell-based; settings: 5%, 10% or 15% by weight of glycerol in the composition
From the text: In psoriasis, the level of cathelicidin is increased in lesional skin of psoriasis patients. […] This finding has been utilized to develop an assay in which the uptake and biological activity of calcipotriol in human keratinocytes from the tested compositions has been determined by measuring the level of induction of the gene encoding cathelicidin.
In the assay, compositions A, B, C, F, G, I, J, K, L prepared as described in Example 1 above were applied topically in triplicate on reconstructed human epidermis consisting of normal human keratinocytes cultured for 12 days on 0.5 cm^2 polycarbonate filters (available from SkinEthic® Laboratories, Nice, France) in an amount of 10 μl. The tissue was treated for two days followed by separation of the epidermis from the polycarbonate filter and snap-frozen in liquid nitrogen. RNA was extracted from the cells and cDNA synthesized by conventional procedures. Quantitative real-time PCR (qPCR) was then performed using the following assays from Applied Biosystems: CAMP Hs0018038_ml and GAPDH Hs99999905_ml. The expression levels of cathelicidin were normalized to GAPDH and a relative quantification was made by comparison with Daivonex® ointment.

[2] = tested on: IL-1α; experiment: Release of IL-1α from calcipotriol ointment containing glycerol; settings: 5%, 10%, 15% by weight of glycerol in a calcipotriol ointment
[3] = one study, M. Hannuksela et al. 1975; cited from earlier work

Structure (SMILES) | effect on biological activity of calcipotriol (expression of cathelicidin) [1] | release of IL-1α [2] | number of irritant reactions [3] [%]
OCC(O)CO [glycerol] | potentiating the biological activity of calcipotriol | reduce the release of IL-1α in a dose-dependent manner | –
CC(O)CO (stereo not drawn) [propylene glycol] | – | – | 12.5
